The results in this text go back to PubChem BioAssay AID493075 (Broad Institute, 2011).

Molecules are shown by their SMILES. Active and inactive are the calls of the source.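 Rule for the calls: active = luminescence drop in every repeat test, with half-maximal concentration at most ten times the top dose; inconclusive = repeat tests disagree; inactive = inactive in every repeat test.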

Test system in the first test: not listed separately
Kind of test: LuxS/LuxPQ-dependent luminescence inhibition, V. harveyi – dry powder, set 3, dose response (AID 493075). To be noted: Vibrio harveyi JMH597 AI-2 quorum sensing luminescence, 9 h; at 16 µM (top of the series).
In the case of `O=S(=O)(Nc1ccccn1)c1ccccc1`, the activity change, negative = inhibition was -0.42% (inactive).
`C[C@@H]1CCCCO[C@@H](CN(C)C(=O)Nc2cccc3ccccc23)[C@H](C)CN([C@H](C)CO)C(=O)c2cc(NC(=O)CCC(F)(F)F)ccc2O1`: the activity change, negative = inhibition was -4.12% (inactive).
On to `C[C@H](CO)N1C[C@H](C)[C@H](CN(C)Cc2ccc(C(=O)O)cc2)Oc2ncc(-c3ccc(C(=O)N(C)C)cc3)cc2C1=O`, for which the activity change, negative = inhibition was 24.5% (inactive).
As for `C[C@@H]1CN([C@@H](C)CO)C(=O)Cc2cc(NC(=O)CCN3CCOCC3)ccc2O[C@H]1CN(C)C(=O)Nc1ccc(F)cc1`, the activity change, negative = inhibition is -10.1% (inactive).
For the molecule `C[C@@H]1CN([C@@H](C)CO)C(=O)Cc2cc(NC(=O)CCCN(C)C)ccc2O[C@H]1CN(C)CC1CCCCC1`, the activity change, negative = inhibition is 5.19% (inactive).
On to `C[C@H]1CN([C@@H](C)CO)C(=O)c2cc(NC(=O)Nc3ccc4c(c3)OCO4)ccc2O[C@@H]1CN(C)C(=O)Nc1ccc(C(F)(F)F)cc1`, for which the activity change, negative = inhibition is -5.41% (inactive).
Still for that read-out and setting: for `C[C@@H]1CCCCO[C@@H](CN(C)Cc2ccncc2)[C@H](C)CN([C@H](C)CO)C(=O)c2cc(NC(=O)C3CCCCC3)ccc2O1` the value was 0.341% (inactive).
`C[C@@H]1CN([C@H](C)CO)C(=O)c2cccc(NC(=O)Nc3ccc(C(F)(F)F)cc3)c2O[C@@H]1CN(C)C(=O)Nc1ccc(C(F)(F)F)cc1`: the activity change, negative = inhibition is -16.5% (inactive).
Turning to `C[C@@H]1CCCCO[C@@H](CN(C)Cc2ccc(C(=O)O)cc2)[C@H](C)CN([C@H](C)CO)C(=O)c2cc(NC(=O)CCCN(C)C)ccc2O1`, the activity change, negative = inhibition is -4.89% (inactive).
Same read-out and setting: for `Cc1ccc(S(=O)(=O)Nc2ccc3c(c2)CC(=O)N([C@@H](C)CO)C[C@@H](C)[C@H](CN(C)C(=O)Nc2ccc(F)cc2)O3)cc1` the value was -1.6% (inactive).
Turning to `C[C@H](CO)N1C[C@H](C)[C@@H](CN(C)C(=O)Nc2ccc(C(F)(F)F)cc2)Oc2ccc(NC(=O)Nc3ccc4c(c3)OCO4)cc2C1=O`, the activity change, negative = inhibition is -5.58% (inactive).
Regarding `Cc1ccc(S(=O)(=O)Nc2ccc3c(c2)C(=O)N([C@H](C)CO)C[C@H](C)[C@@H](CN(C)Cc2ccc(C(F)(F)F)cc2)O3)cc1`, the activity change, negative = inhibition is -11% (inactive).
As to `C=Cn1c(C(=O)O)ccc1-c1cccs1`, the activity change, negative = inhibition was 1.45% (inactive).
On the same count and under the same terms, for `C[C@@H]1CCCCO[C@@H](CN(C)C(=O)Nc2ccc(C(F)(F)F)cc2)[C@H](C)CN([C@@H](C)CO)C(=O)c2cc(NC(=O)CCC(F)(F)F)ccc2O1` the value was -7.66% (inactive).
For `C[C@@H]1CN([C@@H](C)CO)C(=O)Cc2cc(NC(=O)CCN3CCOCC3)ccc2O[C@H]1CN(C)C(=O)Nc1ccc(C(F)(F)F)cc1`, the activity change, negative = inhibition was -2.52% (inactive).
Same read-out and setting: for `CNC[C@@H]1Oc2ccc(NC(=O)C3CCCCC3)cc2CC(=O)N([C@@H](C)CO)C[C@H]1C` the value was -5.97% (inactive).

For another test, the system named is Vibrio harveyi JMH597 AI-2 quorum sensing luminescence, 9 h. The test is described as above.
Conditions: not given
`C[C@H](CO)N1C[C@H](C)[C@@H](CN(C)Cc2ccc3c(c2)OCO3)Oc2c(NC(=O)NC3CCCCC3)cccc2C1=O`: the AC50 was 7.05 µM.
Same read-out and setting: for `C=Cn1c(C(=O)O)ccc1-c1ccc(OC)cc1` the value was 8.59 µM; for `C=Cn1c(C(=O)O)ccc1-c1ccc(Cl)cc1`, 4.97 µM.
Same read-out and setting: for `CCc1ccc(S(=O)(=O)Nc2ccc(Br)cn2)cc1` the value was 3.67 µM.
For the molecule `C[C@@H]1CN([C@H](C)CO)C(=O)c2ccccc2-c2ccccc2CO[C@@H]1CN(C)Cc1ccc(Oc2ccccc2)cc1`, the AC50 was 12.7 µM.
Consider `O=C1C=C/C(=C/Br)O1`, for which the AC50 was 3.78 µM.
For the molecule `CCc1ccc(-c2ccc(C(=O)O)n2C)cc1`, the AC50 was 4.46 µM.
For the molecule `O=S(=O)(Nc1cccnc1)c1ccc(Oc2ccccc2)cc1`, the concentration at half-maximal activity (AC50) was 0.627 µM.
